Legend:
C57BL/6 mice [1] = test: Crystalline drug-loaded alginate capsules, long-term IP/SC implantation, prevention of fibrosis; assay type: in vivo; settings: crystalline form in alginate capsules, retrieved after 1, 3 and 6 months from IP space
Text: Lead compounds identified by screening the amorphous formulations (e.g., compounds of Formulae I-X, particularly LY215799, Dx, Curcumin, GW2580, QNZ and Ki20227) were studied for long-term release and prevention of fibrosis following encapsulation in crystalline form and implantation into the intraperitoneal (IP) space of C57BL/6 mice for long term testing. […] Drug extraction analysis by HPLC also determined that notable percentages (e.g., more than 50%) of the loaded drug remained within the retrieved capsules (FIG. 22D), particularly in the subcutaneous implanted samples. […] In contrast, capsules retrieved from the IP space 6 months post-implantation were identified with only 2-40% of the loaded drug remaining within the retrieved capsules.
All animal protocols were approved by the MIT Committee on Animal Care, and all surgical procedures and post-operative care was supervised by MIT Division of Comparative Medicine veterinary staff. Immune-competent male non-diabetic or STZ-induced diabetic C57BL/6 mice (Jackson Laboratory, Bar Harbor, Me.) were anesthetized with 3% isoflurane in oxygen and had their abdomens shaved and sterilized using betadine and isopropanol. Preoperatively, all mice also received a 0.05 mg/kg dose of buprenorphine subcutaneously as a pre-surgical analgesic, along with 0.3 mL of 0.9% saline subcutaneously to prevent dehydration. A […] incision was made along the midline of the abdomen and the peritoneal lining was exposed using blunt dissection. The peritoneal wall was then grasped with forceps and a 0.5-1 mm incision was made along the linea alba. A desired volume of spheres (all materials without islets, as well as SLG20 spheres encapsulating rat islets) were then loaded into a sterile pipette and implanted into the peritoneal cavity through the incision. The incision was then closed using 5-0 taper-tipped polydioxanone (PDS II) absorbable sutures. The skin was then closed over the incision using a wound clip and tissue glue.
At desired time points post-implantation or transplantation (with encapsulated islets), as specified in figures, mice were euthanized by CO2 administration, followed by cervical dislocation. In certain instances, 5 ml of ice cold PBS was first injected in order perform an intraperitoneal lavage to rinse out and collect free-floating intraperitoneal immune cells. An incision was then made using the forceps and scissors along the abdomen skin and peritoneal wall, and intraperitoneal lavage volumes were pipetted out into fresh 15 ml falcon tubes (each prepared with 5 ml of RPMI cell culture media). Next, a wash bottle tip was inserted into the abdominal cavity. KREBS buffer was then used to wash out all material spheres from the abdomen and into petri dishes for collection. After ensuring all the spheres were washed out or manually retrieved (if fibrosed directly to intraperitoneal tissues), they were transferred into 50 mL conical tubes for downstream processing and imaging. After intraperitoneal lavage and sphere retrieval, remaining fibrosed intraperitoneal tissues were also excised for downstream FACS and expression analyses.
For phase contrast imaging, retrieved materials were gently washed using Krebs buffer and transferred into 35 mm petri dishes for phase contrast microscopy using an Evos X1 microscope (Advanced Microscopy Group).
Immunofluorescence imaging was used to determine immune populations attached to spheres. […]

C57BL/6 mice [2] = test: Anti-fibrotic screening of amorphous drug formulations in 500 μm alginate capsules, 2-week intraperitoneal implantation; assay type: in vivo; settings: conclusion; alginate hydrogel, ceramic, glass, PDMS and polystyrene beads
Text: For screening of anti-fibrotic drug activity, amorphous drug formulations were encapsulated inside 500 μm alginate capsules. Broad-spectrum anti-inflammatory agents curcumin, dexamethasone, and rapamycin have been used for preventing fibrosis of various biomaterials, such as polymer PLGA and hydrogel alginate. A panel of lead drug candidates (e.g., compounds of Formulae I-X) including the traditional broad-spectrum anti-inflammatories as well as agents targeted to essential macrophage biology pathways (e.g., TNFα, NFκB, p110δ/PI3K, TGFβ, and CSF1R) were selected. […] SLG20 alginate hydrogel spheres with these lead drug candidates were prepared as amorphous formulations to investigate the effect of macrophage immunomodulation on foreign body response. Drugs were encapsulated in amorphous form prepared by first dissolving in an organic solvent (e.g., vehicle in FIGS. 7, 9) then by mixing with alginate aqueous solution. Efficacy in preventing fibrosis was assessed in C57BL/6 mice at 2-weeks post implantation into the intraperitoneal (IP) cavity. Drug-containing spheres (500 μl/animal) were then implanted into the intraperitoneal space of C57BL/6 mice for 14 days. After this period, spheres were harvested and studied for cellular deposition and fibrosis.
All animal protocols were approved by the MIT Committee on Animal Care, and all surgical procedures and post-operative care was supervised by MIT Division of Comparative Medicine veterinary staff. Immune-competent male non-diabetic or STZ-induced diabetic C57BL/6 mice (Jackson Laboratory, Bar Harbor, Me.) were anesthetized with 3% isoflurane in oxygen and had their abdomens shaved and sterilized using betadine and isopropanol. Preoperatively, all mice also received a 0.05 mg/kg dose of buprenorphine subcutaneously as a pre-surgical analgesic, along with 0.3 mL of 0.9% saline subcutaneously to prevent dehydration. A […] incision was made along the midline of the abdomen and the peritoneal lining was exposed using blunt dissection. […]

[3] = tested on: inflammatory macrophage markers Sphk1, TNFα, Arg1, IL1; test: NanoString multiplexed gene expression analysis of retrieved capsules; assay type: in vivo, C57BL/6 mice; settings: amorphous drug-loaded capsules, 2 weeks IP; CSF1R-targeting agents compared
Method: RNAs for mock-implanted (mock) controls, or for various drug-loaded 0.5 mm diameter alginate sphere-bearing mice (n=4/group) were isolated from tissue samples taken at various time points after implantation, as described. Respective RNAs were quantified, diluted to the appropriate concentration (100 ng/μl), and then 500 ng of each sample was processed according to NanoString manufacturer protocols for expression analysis via our customized multiplexed gene mouse macrophage subtyping panel. RNA levels (absolute copy numbers) were obtained following nCounter (NanoString Technologies Inc., Seattle, Wash.) quantification, and group samples were analyzed using nSolver analysis software (NanoString Technologies Inc., Seattle, Wash.).

[4] = In vitro drug release from alginate capsules loaded with crystalline or amorphous formulations; assay type: physicochemical
Method: Release study was carried out in 3 different media, a normal saline-Isopropyl alcohol (10%) mixture, a phosphate buffer (pH 7.4), or for accelerated condition with phosphate buffered saline (pH 7.4) either with 0.1% w/v or 03% w/v SDS. Release study at NS+10% IPA was carried out in 2 ml medium at 37° C. Sampling was carried out by replacement of 1.5 ml of release medium by total replacement of release medium with fresh medium. […] For release in accelerated condition (PBS+SDS), the same time points were followed while 20 μl of drug loaded capsules were incubated in 2 ml release medium to achieve sink conditions. Drug concentration in samples was measured by reverse phase HPLC on C-18 column with a mobile phase or using UV calibrated system. An isocratic mode was set at a flow rate of 0.5-2 ml/min and a different wave-length of nm and 20-50 μl of samples was injected into an HPLC system (Waters, LC-Module-I) or UV analyzed. Calibration curves were prepared in concentration range of 0.05-10 μg/ml. Using prepared calibration curves, drugs concentration in different release samples were calculated.

Row | Structure (SMILES) | fibrosis by phase contrast imaging and confocal microscopy (C57BL/6 mice [1]) | efficacy in inhibiting fibrosis of implanted biomaterial (C57BL/6 mice [2]) | further results
1 | Nc1ccc2ncnc(NCCc3ccc(Oc4ccccc4)cc3)c2c1 [QNZ, N4-(4-phenoxyphenethyl)quinazoline-4,6-diamine] | fibrosis free |  | 
2 | Cc1cccc(-c2nn3c(c2-c2ccnc4ccc(C(N)=O)cc24)CCC3)n1 [LY215799, 4-(2-(6-methylpyridin-2-yl)-5,6-dihydro-4H-pyrrolo[1,2-b]pyrazol-3-yl)quinoline-6-carboxamide] | fibrosis free |  | 
3 | COc1cc(Oc2ccnc3cc(OC)c(OC)cc23)ccc1NC(=O)NC(C)c1nccs1 (centres unmarked) [Ki20227, N-[4-[(6,7-Dimethoxy-4-quinolinyl)oxy]-2-methoxyphenyl]-N′-[1-(2-thiazolyl)ethyl]urea] | fibrosis free | demonstrated efficacy in inhibiting fibrosis | 
4 | Cc1ccc(Nc2c(C(N)=O)cnc3cc(-c4ccc(S(C)(=O)=O)cc4)ccc23)cc1C [cFMS receptor inhibitor III, 4-(3,4-Dimethylanilino)-7-(4-(methylsulfonyl)phenyl)quinoline-3-carboxamide] |  | demonstrated efficacy in inhibiting fibrosis | gene expression responses [3]: almost identical gene expression responses
5 | COc1cc(/C=C/C(=O)CC(=O)/C=C/c2ccc(O)c(OC)c2)ccc1O [Curcumin, (1E,6E)-1,7-bis (4-hydroxy-3-methoxyphenyl)-1,6-heptadiene-3,5-dione] | fibrosis free |  | drug release profile ([4]; amorphous curcumin encapsulated in alginate, in vitro up to 2 months): quicker drug release; drug release profile ([4]; crystalline curcumin encapsulated in alginate, in vitro up to 2 months): releases more slowly initially, but can be maintained for much longer periods of time; duration of long-term release (slow surface erosion) ([4]; crystalline curcumin loaded into alginate spheres): at least 2 months; drug release profile ([4]; mixed crystalline:amorphous 3:1 curcumin in alginate): both quick and extended release
